Legend:
Mouse [1] = assay: Elevated plus maze model (EPM) test; assay type: in vivo
Excerpt: The elevated plus maze has been widely used in anxiety experiments of the small rodent. This system is used to detect the situation of decreasing animals' inherent aversion to a high position and a open field, after using the anxiety drug. The rodent (e.g. rat, mouse), which have the exploratory behavior, will actively explore the open arms after placed in the elevated plus maze, but fear the high and open environment in the open arms. The antianxiety drug increases the open-arm exploratory activities, while the anxiety drug has the opposite effect.
The elevated plus maze has a pair of open arms and a pair of closed arms. The animal, after a period of time of adaptation, is rapidly placed in the central platform of the EPM in such a way that its head directly faces one of the open arms. A tracking camera is used to record following: (1) times of entering the open arm (open arm entry, OE) within 5 minutes, wherein it is considered as one time of entering an open arm when all the four paws of the rat have entered any open arm, and meanwhile this entry activity is finished when one paw completely withdraws from this arm; (2) duration of staying in an open arm (open arm time, OT) within 5 minutes, wherein the unit of the duration of staying in an open arm is “second”; (3) times of entering a closed arm (close arm entry, CE) within 5 minutes, wherein it is considered as one time of entering a closed arm when all the four paws of the rat have entered any closed arm; (4) duration of staying in a closed arm (close arm entry, CT) within 5 minutes, wherein the unit of duration of staying in a closed arm is “second”. The following is calculated from (1)-(4), respectively: […]
(1) the total number of the times of the open arm entry and the closed arm entry (OE+CE): representing the motion vitality of the rat;
(2) the ratio of the times of the open arm entry (OE %); the times of the open arm entry/(OE+CE)×100%;
(3) the ratio of the duration of staying in the open arms (OT %), i.e. the duration of staying in the open arms/(OT+CT)×100%. Each rat is tested for 5 minutes. OE % and OT % represent the indices of the antianxiety effect.

Mouse [2] = assay: Chronic emotional stress-response model (CSM) test, behaviors; assay type: in vivo, rat; details: CSM empty bottle stimulation, dosage 3 mg/Kg, n=10
[3] = system: Neurotransmitter in Serum of Rat; assay: CSM test, level of neurotransmitter in serum; assay type: in vivo; details: dosage 3 mg/Kg
Excerpt: (§1) The chronic emotional stress-response model takes as an emotional stress-response resource an uncertain stimulation of drinking by an empty bottle, so as to investigate the influence which the emotional stress of 14 days exerts on the behaviors, and neuroendocrine and immune functions of the rats.
After adaptation for one week, the rats were randomly grouped. Except the normal group, the model groups were fed in individual cages and subjected to the uncertain stimulation of drinking by an empty bottle to establish the anxiety stress models. The specific method is as follows: the training of timely feeding water lasts for 7 days, that is, water was being given to the animals for 10 minutes every day at 9:00-9:10 and 17:00-17:10, and at other times, the water bottles were taken away, without water given. After the period of timely feeding water was ended, the stress-response experiment started, wherein the uncertain stimulation of the empty bottle was given once or twice a day in the above two periods of time for two weeks. The normal group was not subjected to any treatment, and was fed with water and food freely. The behaviors observed included attacking (biting or attacking the empty bottle and the cage), exploratory (moving around and visiting the place where the water bottle was located), and grooming behaviors (combing fur and washing face). The specific method was: the 10 minutes of the empty bottle stimulation was equally divided into 10 periods of time, the above-mentioned three types of behaviors of each rat were recorded in each period of time, wherein it was marked as “1” if the behavior appears, otherwise it was marked as “0”. The total score obtained in the observation within 10 minutes was between 0 and 10. […] The average score of the first 3 days and the last 3 days of the 14 observation days was used for statistical analysis. The samples were gathered when the experiment was ended to detect the neuroendocrine and immune indices.
The normal control group was not subjected to any treatment; all the other groups were subjected to the stimulation.
(§2) The following endocrine levels were detected in the test: (1) plasma cortisol concentration, (2) catecholamine level, (3) 5-hydroxytryptamine level.

Mouse [4] = assay: Analysis of times of locomotor activities; assay type: in vivo
Excerpt: The condition of the locomotor activity of an animal reflects the functional status of its central nervous system. The central stimulant drug can prominently increase the locomotor activity but decrease the exploratory behavior, and a certain dosage of antipsychotic drug can decrease the exploratory behavior without influencing the locomotor activity. A YLS-1A multi-functional mouse locomotor activity recorder is used to record the situation of locomotor activity of the mouse at different points of time after drug administration.

[5] = system: Neurotransmitter in Hippocampus of Rat; assay: CSM test, level of neurotransmitter in hippocampus; assay type: in vivo; details: dosage 3 mg/Kg
Excerpt: as §1
After adaptation for one week, the rats were randomly grouped. Except the normal group, the model groups were fed in individual cages and subjected to the uncertain stimulation of drinking by an empty bottle to establish the anxiety stress models. The specific method is as follows: the training of timely feeding water lasts for 7 days, that is, water was being given to the animals for 10 minutes every day at 9:00-9:10 and 17:00-17:10, and at other times, the water bottles were taken away, without water given. After the period of timely feeding water was ended, the stress-response experiment started, wherein the uncertain stimulation of the empty bottle was given once or twice a day in the above two periods of time for two weeks. The normal group was not subjected to any treatment, and was fed with water and food freely. The behaviors observed included attacking (biting or attacking the empty bottle and the cage), exploratory (moving around and visiting the place where the water bottle was located), and grooming behaviors (combing fur and washing face). The specific method was: the 10 minutes of the empty bottle stimulation was equally divided into 10 periods of time, the above-mentioned three types of behaviors of each rat were recorded in each period of time, wherein it was marked as “1” if the behavior appears, otherwise it was marked as “0”. The total score obtained in the observation within 10 minutes was between 0 and 10. […] The average score of the first 3 days and the last 3 days of the 14 observation days was used for statistical analysis. […]
as §2

CN1C(=O)CN=C(c2ccccc2)c2cc(Cl)ccc21 [DZP, diazepam]
OE + CE (times) (Mouse [1]; EPM 5 minutes, dosage 3 mg/Kg, n=10, mean±SD, negative control 10.8 ± 3.9): 12.9 ± 5.2 times | OT (%) (Mouse [1]; EPM 5 minutes, dosage 3 mg/Kg, n=10, negative control 20.1 ± 4.5, p<0.05): 42.3 ± 5.7 % | OE (%) (Mouse [1]; EPM 5 minutes, dosage 3 mg/Kg, n=10, negative control 22.8 ± 5.9, p<0.05): 40.9 ± 5.2 % | values of OT % and OE % and total number of the times of entering arms (in words) (Mouse [1]; EPM, with the dosage of administration): can increase the values of OT % and OE % without increasing the total number of the times of entering arms | Grooming Behavior (%) (Mouse [2]; negative control 2.38 ± 1.16): 1.78 ± 1.06% | Exploratory Behavior (%) (Mouse [2]; negative control 2.44 ± 0.88): 1.09 ± 0.52% | Attacking Behavior (%) (Mouse [2]; negative control 2.56 ± 2.09): 0.69 ± 0.52% | 5-HT ([3]; n=10, negative control 0.86 ± 0.15, p<0.05): 1.12 ± 0.13 ng/mL | NE ([3]; n=10, negative control 1.15 ± 0.16): 1.00 ± 0.13 pg/mL | DA ([3]; n=10, negative control 5.45 ± 0.76): 6.00 ± 1.70 ng/mL | NA ([3]; n=10, negative control 15.08 ± 0.71): 14.67 ± 0.36 pg/mL | COR (cortisol) ([3]; n=10, negative control 49.94 ± 7.26, p<0.05): 28.94 ± 6.36 ng/mL | Times of Locomotor Activity 15-20 min (times) (Mouse [4]; 15-20 min after administration, dosage 3 mg/Kg, n=10, negative control 86 ± 35): 48 ± 46 times | Times of Locomotor Activity 30-35 min (times) (Mouse [4]; 30-35 min after administration, dosage 3 mg/Kg, n=10, negative control 64 ± 15, p<0.05): 32 ± 16 times | Times of Locomotor Activity 60-65 min (times) (Mouse [4]; 60-65 min after administration, dosage 3 mg/Kg, n=10, negative control 53 ± 9, p<0.05): 24 ± 6 times | times of locomotor activities of the mouse (in words) (Mouse [4]; with the dosage of administration): prominently reduce the times of locomotor activities of the mouse at the two periods of time, namely, 30 minutes and 60 minutes | NE (norepinephrine) ([5]; n=10, negative control 0.104 ± 0.048): 0.080 ± 0.053 pg/mL | Dopamine ([5]; n=10, negative control 9.542 ± .93): 11.38 ± 4.33 ng/mL | NA ([5]; n=10, negative control 40.97 ± 13.25): 37.22 ± 10.05 pg/mL
